For assay [1], the target named is T1, D482G BSEP (Homo sapiens, UniProt O95342, D482G/L339V).
T1 construct: expressed in transfected cells; host or cells: MDCKII cells infected with recombinant adenovirus
Nature of the assay: Transcellular transport assay of [^3H] TC across MDCKII monolayer. The conditions noted are these: 24 hours. In kind it is cell-based. As for the experimental part:
(§1) MDCKII cells were dispersed on a Transwell membrane insert (pore size: […]; Falcon) of a 24-well plate, resulting in a density of 1.5×10^5 cells/insert. Two days after the culture, the confluent cells were infected with recombinant adenoviruses having the cDNAs of wild-type, E297G and D482G BSEPs, and GFP, at 50 MOI. […] After completion of the treatment for 24 hours, a transcellular transport assay was carried out (see Mita et al., Am J Physiol Gastrointest Liver Physiol 290: G550-G556, 2006).
(§2) The apparent efflux clearance across the apical membrane (PSapical) was calculated by dividing a steady rate of the transcellular transport of [^3H] TC for 2 hours by the intracellular concentration of the [^3H] TC at the termination of the experiment (2 hours later).

Another assay has as its target T2, E297G BSEP (Homo sapiens, UniProt O95342, E297G/L339V).
T2 construct: expressed in transfected cells; host or cells: MDCKII cells infected with recombinant adenovirus
Described as above. It counts as cell-based. The conditions noted are these: 24 hours. On the procedure:
as §1, §2

The target in a further assay is T3, wild-type BSEP (Homo sapiens, UniProt O95342, L339V).
T3 construct: expressed in transfected cells; host or cells: MDCKII cells infected with recombinant adenovirus
T3 sequence (O95342 whole entry L339V): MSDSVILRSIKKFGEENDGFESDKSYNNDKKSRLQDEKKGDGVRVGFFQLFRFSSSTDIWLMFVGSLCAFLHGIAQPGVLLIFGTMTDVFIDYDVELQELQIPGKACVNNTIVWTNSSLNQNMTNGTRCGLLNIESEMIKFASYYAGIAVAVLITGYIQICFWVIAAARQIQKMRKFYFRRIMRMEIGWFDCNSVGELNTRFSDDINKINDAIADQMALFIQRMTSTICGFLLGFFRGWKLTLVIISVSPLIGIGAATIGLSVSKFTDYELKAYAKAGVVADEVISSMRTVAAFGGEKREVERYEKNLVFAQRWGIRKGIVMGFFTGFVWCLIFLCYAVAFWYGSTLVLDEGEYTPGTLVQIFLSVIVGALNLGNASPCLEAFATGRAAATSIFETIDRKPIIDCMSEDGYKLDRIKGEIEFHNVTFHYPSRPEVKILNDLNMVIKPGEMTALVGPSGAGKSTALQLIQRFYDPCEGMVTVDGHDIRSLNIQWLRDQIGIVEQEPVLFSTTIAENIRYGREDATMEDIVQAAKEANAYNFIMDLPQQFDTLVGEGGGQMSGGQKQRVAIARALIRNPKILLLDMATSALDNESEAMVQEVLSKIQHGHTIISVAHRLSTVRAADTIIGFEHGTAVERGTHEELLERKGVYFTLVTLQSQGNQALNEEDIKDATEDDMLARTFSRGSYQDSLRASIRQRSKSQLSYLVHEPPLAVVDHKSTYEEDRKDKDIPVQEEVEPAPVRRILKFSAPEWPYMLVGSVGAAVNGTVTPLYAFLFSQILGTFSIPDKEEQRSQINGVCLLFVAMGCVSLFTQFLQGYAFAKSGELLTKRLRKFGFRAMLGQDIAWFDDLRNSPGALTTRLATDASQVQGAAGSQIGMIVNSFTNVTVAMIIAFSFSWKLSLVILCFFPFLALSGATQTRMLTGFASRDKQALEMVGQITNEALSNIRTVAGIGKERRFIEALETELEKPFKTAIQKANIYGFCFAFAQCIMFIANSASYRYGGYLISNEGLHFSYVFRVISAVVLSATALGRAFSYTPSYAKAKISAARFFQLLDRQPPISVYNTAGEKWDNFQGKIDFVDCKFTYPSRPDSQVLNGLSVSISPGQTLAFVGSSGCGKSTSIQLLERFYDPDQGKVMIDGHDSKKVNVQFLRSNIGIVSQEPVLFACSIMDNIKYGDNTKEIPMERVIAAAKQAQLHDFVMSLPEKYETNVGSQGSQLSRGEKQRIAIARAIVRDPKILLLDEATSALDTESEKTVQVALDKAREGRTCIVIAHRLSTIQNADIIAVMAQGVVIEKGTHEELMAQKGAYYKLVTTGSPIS
The assay is described as above. In kind it is cell-based. Particulars: 24 hours. On the procedure:
as §1, §2

For assay [2], the system named is MDCKII cells expressing GFP. Nature of the assay: Transcellular transport assay of [^3H] TC across MDCKII monolayer, GFP control cells. In kind it is cell-based. Particulars: 24 hours. On the procedure: as §1, §2
The target of assay [3] is T1, D482G BSEP. Nature of the assay: Brefeldin A washing experiment, maturation of BSEP in MDCKII cells. It counts as cell-based. Particulars: 1 mM 4PBA. On the procedure: MDCKII cells were dispersed on a 6-well plate, resulting in a density of 2.5×10^5 cells/well. After completion of the culture for 24 hours, the confluent cells were infected with recombinant adenoviruses having the cDNAs of wild-type, E297G and D482G BSEPs, and GFP, at 200 MOI. After completion of the infection, the cells were cultured for 12 hours. Thereafter, in order to inhibit the transport of BSEP from the endoplasmic reticulum to the Golgi body, the cells were treated in the presence or absence of 5 μg/ml brefeldin A (Sigma). After completion of the treatment for 2 hours, in the presence or absence of brefeldin A, 4PBA was added to the cells to a concentration of 1 mM. At the time point of 12 hours after the 4PBA treatment, a crude membrane fraction was prepared. The obtained fraction was separated by 6% SDS-PAGE, and Western blotting was then carried out.
The promotion of a process of converting an immature BSEP existing in the endoplasmic reticulum to a mature BSEP existing on the cell surface is considered to be a post-translation mechanism that may be associated with an increase in the expression of the mature BSEP on the cell surface. In order to evaluate the effects of the 4PBA treatment on the maturation of a BSEP, the transport of the BSEP from the endoplasmic reticulum to the Golgi body was inhibited with brefeldin A (BFA), the BFA was then washed out, and the maturation rate of the BSEP on MDCKII cells was measured. BFA is an agent for inducing the accumulation of an immature BSEP existing in the endoplasmic reticulum (FIGS. 5A and 5B). The maturation rate was evaluated by washing out such BFA and then measuring an increased amount of the band density of a mature BSEP over time according to Western blotting. The band density of the mature BSEP was calculated by subtracting the band density at 0 (zero) hour from the band density at each measurement time (FIG. 5B). […] In addition, in the case of mature BSEPs, the expression levels were not changed until 3 hours after the washing out of BFA, regardless of the presence or absence of 4PBA. […] At the time point 8 hours after the washing out of BFA, the MDCKII cells treated with 4PBA were compared with the MDCKII cells that had not been treated with 4PBA. As a result, the expression level of a mature BSEP in the MDCKII cells treated with 4PBA was higher than the same expression level in the MDCKII cells that had not been treated with 4PBA.

A further assay deals with extrinsic P-gp. In words: Decomposition rate of cell surface-expressed protein (biotin-labeling) in MDCKII cells. In kind it is cell-based. Particulars: 1 mM 4PBA.
The target of a further assay is CFTRΔF508 (Homo sapiens, UniProt P13569, DEL508-508). The conditions noted are these: Non-Patent Document 2; cited from earlier work.
CFTRΔF508, sequence (P13569 with tags, fused parts or gaps DEL508-508): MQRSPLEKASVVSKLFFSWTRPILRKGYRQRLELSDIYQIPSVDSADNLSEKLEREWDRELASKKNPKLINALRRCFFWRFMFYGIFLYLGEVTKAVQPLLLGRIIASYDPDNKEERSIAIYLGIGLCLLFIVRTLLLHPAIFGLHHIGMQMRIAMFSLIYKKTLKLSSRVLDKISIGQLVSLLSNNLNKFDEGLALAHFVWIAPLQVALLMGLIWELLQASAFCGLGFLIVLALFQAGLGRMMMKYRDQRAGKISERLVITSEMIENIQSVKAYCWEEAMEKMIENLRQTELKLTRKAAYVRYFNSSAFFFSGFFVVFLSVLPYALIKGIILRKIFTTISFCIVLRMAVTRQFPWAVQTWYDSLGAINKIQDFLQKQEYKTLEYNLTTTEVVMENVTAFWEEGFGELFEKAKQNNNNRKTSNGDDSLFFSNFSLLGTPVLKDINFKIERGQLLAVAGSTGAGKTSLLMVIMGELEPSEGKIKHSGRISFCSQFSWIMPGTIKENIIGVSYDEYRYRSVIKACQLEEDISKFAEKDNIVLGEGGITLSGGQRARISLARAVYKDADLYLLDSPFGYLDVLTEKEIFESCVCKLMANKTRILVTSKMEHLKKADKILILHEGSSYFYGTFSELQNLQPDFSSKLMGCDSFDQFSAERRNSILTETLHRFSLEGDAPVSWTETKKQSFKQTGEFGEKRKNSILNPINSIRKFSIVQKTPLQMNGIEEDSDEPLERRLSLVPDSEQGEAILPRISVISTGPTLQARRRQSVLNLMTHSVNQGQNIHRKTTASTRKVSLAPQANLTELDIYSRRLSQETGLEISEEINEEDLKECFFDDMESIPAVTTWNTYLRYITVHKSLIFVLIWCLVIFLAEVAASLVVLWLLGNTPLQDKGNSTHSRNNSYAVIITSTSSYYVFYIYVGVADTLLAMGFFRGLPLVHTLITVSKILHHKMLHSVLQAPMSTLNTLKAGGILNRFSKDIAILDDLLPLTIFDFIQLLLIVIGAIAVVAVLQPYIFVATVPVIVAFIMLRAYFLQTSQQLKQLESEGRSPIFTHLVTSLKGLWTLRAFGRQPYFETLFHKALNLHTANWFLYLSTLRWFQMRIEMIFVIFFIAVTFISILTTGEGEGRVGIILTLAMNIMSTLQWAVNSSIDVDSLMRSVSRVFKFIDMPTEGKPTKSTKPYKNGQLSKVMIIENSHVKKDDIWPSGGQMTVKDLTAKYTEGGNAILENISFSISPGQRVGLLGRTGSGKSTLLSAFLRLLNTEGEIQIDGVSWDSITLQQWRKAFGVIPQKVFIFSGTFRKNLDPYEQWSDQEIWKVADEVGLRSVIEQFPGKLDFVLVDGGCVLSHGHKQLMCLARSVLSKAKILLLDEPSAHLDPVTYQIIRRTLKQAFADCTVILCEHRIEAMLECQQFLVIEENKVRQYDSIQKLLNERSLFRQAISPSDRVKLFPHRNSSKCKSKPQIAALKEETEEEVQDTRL
Setting [4] is: 1 mM, PSapical minus PSapical of GFP cells.

T1 sequence (O95342 whole entry L339V/D482G): as the sequence (O95342 whole entry L339V) above, with D482G counted along it
T2 sequence (O95342 whole entry E297G/L339V): as the sequence (O95342 whole entry L339V) above, with E297G counted along it

Turning to `O=C(O)CCCc1ccccc1` [4PBA, 4-phenylbutyric acid], the “efflux of [^3H] TC from the apical side to the base side” value at D482G BSEP [1] (1 mM, MDCKII monolayer) is “did not influence”; at E297G BSEP (1 mM, MDCKII monolayer), “did not influence”; on wild-type BSEP (1 mM, MDCKII monolayer) it was “did not influence”; in assay [2] (1 mM) it was “did not influence”. The “efflux of [^3H] TC from the base side to the apical side, increase” value at D482G BSEP [1] (1 mM, MDCKII monolayer) stood at 3 times; at E297G BSEP (1 mM, MDCKII monolayer) it was 2.5 times; at wild-type BSEP (1 mM, MDCKII monolayer), 1.5 times. Moreover, the “BSEP-dependent PSapical value (PSapical, BSEP), increase” value was found to be 2.8 times at D482G BSEP [1] (setting [4]), 3.0 times at E297G BSEP (setting [4]) and 1.7 times on wild-type BSEP (setting [4]). For the same compound, the PSapical value entry on D482G BSEP [1] (4PBA treatment 1 mM) is listed as “increased”; on E297G BSEP (4PBA treatment 1 mM), “increased”; on wild-type BSEP (4PBA treatment 1 mM), “increased”; in assay [2] (4PBA treatment 1 mM), “no changes”. For the same compound, the “efflux of [^3H] TC from the base side to the apical side” value in assay [2] (1 mM) is “such effects were not observed”. Further, at D482G BSEP [3] (8 hours after the washing out of BFA), the “expression level of mature BSEP, 4PBA-treated vs not treated cells” value was “higher”. The “expression level of immature BSEP in the endoplasmic reticulum, with vs without 4PBA” value on D482G BSEP [3] (immediately after the washing out of BFA (hour 0)) is given as “almost the same”. The “decomposition of extrinsic P-gp on the cell surface” value in the assay with extrinsic P-gp is listed as “not influenced”. The “expression of CFTRΔF508 on the cell membrane” value on CFTRΔF508 is “recovers its expression on the cell membrane”.

Values taken from US20130197085A1, “AGENT AND METHOD FOR STABILIZING MEMBRANE PROTEIN” (priority 2007, published 2013).
